Legend:
I. scapularis nymphs = assay: Tick bioassay, treated 2-dram vials, probit analysis; format: in vivo, Ixodes scapularis; conditions: 24 h exposure
Source text: A control treated with acetone only was run with each series.
For each time point, if ticks and fleas were incapable of movement, maintaining normal posture, leg coordination, ability to right themselves, or any signs of life, they were considered moribund or dead.

[1] = test system: ticks, fleas and mosquitoes; assay: Example 2 bioassay, qualitative comparison on ticks, fleas and mosquitoes (Examples 4, 6); format: in vivo
Experimental: Samples of the compounds listed below were obtained as described in Example 1, and screened for biocidal activities against nymphal Ixodes scapularis. In this example, 2% acetone solutions (wt/vol) of the compounds were applied to inner surfaces of 2-dram friction cap vials. Vials and caps were treated then allowed to dry for a minimum of 4 hours before placing 10 nymphs in each container. These same vials were used to challenge additional nymphs and adult I. scapularis ticks and adult Xenopsylla cheopis fleas through five weeks to observe any possible residual activity.
Nootkatol was tested using the bioassay presented in Example 2.
Two nootkatone samples were compared to nootkatone isolated from Alaska yellow cedar using the method presented in Example 1. The first sample was a natural extract of nootkatone taken from grapefruit oil purchased commercially. The second sample was a synthetically produced nootkatone purchased commercially.
Both samples were compared to the nootkatone originating from Alaska yellow cedar in terms of their biocidal activities. Using a bioassay method similar to that presented in Example 2, no qualitative differences were discernible among the nootkatone samples in terms of their biocidal effect on ticks, fleas and mosquitoes.

[2] = test system: Ixodes scapularis nymphal ticks; assay: Tick repellency bioassay; format: in vivo; conditions: combinations 1:1 by weight
Source text: One-hundred (100) μl of test compound was pipetted onto a cotton-tipped applicator mounted to the bottom center of a 1 dram glass shell vial using non-toxic modeling clay. A total of 8 concentrations were screened with doses ranging from 0.04–5.0%. Applicators treated with acetone only served as controls. A line was drawn around the perimeter of the vial immediate to the base of the treated cotton portion of the applicator. The area above the line was designated the “repellent zone”. The vial was allowed to air-dry 1 h before a single tick was introduced. Vials were covered with a single piece of mesh and fitted with a hollowed-out plastic cap to cover the opening of the vial; this prevented the tick from escaping but allowed for air exchange. Vials were breathed upon by investigators at 1 min intervals and a hand was placed over the test vials to provide stimuli for ticks to pass into the repellent zone. […] If the tick crossed over and remained in the “repellent zone” for ≧5 sec, the tick was deemed non-repelled by the test compound. Each test was replicated 10 times using a new tick for each test. Repellent activity was determined at 1, 2, 3, and 4 h after treatment. Probit analysis was used to determine repellent efficacy (RD50 and RD95).

Ae. aegypti adults = assay: Adult mosquito bottle bioassay; format: in vivo, Aedes aegypti; conditions: 24 h exposure
Experimental: Adult mosquitoes were tested using the bottle bioassay method of Brogden and McAllister (J. Am. Mosq. Control Assoc., 14:159–64, 1998) with minor modifications. Natural product extracts were two-fold serially diluted for a total of 8 concentrations ranging from 0.002% to 0.25% in 1.5 ml of acetone. Individual dilutions were added to 250 ml Wheaton glass bottles and capped. Bottles were manipulated to evenly coat all inner surfaces. The caps were removed and bottles were allowed to air-dry overnight. Once bottles were completely dry, 10–50 (in some tests 25–50) adult mosquitoes were aspirated into the bottles. Mosquitoes were held in the bottles for 24 h at 23° C. and 85% RH. Morbidity and mortality were recorded at 15, 30, 45, and 60 min and 24 hour intervals. One bottle for each replicate was treated with acetone only and served as a control. The dose-mortality data was evaluated with probit analysis, using the LdP Line software, to determine LC50 and LC90 values.
Carvacrol was combined with compound 7, 9, or 10 at a 1:1 ratio (7.5 μl of carvacrol:7.5 μl of compound 7, 9, or 10 was added to 2,985 μl of acetone for a 0.5% solution, from which serial dilutions were made), and tested as previously described against nymphal ticks and adult and larval mosquitoes.

X. cheopis adults = assay: Flea bioassay, treated 2-dram vials, probit analysis; format: in vivo, Xenopsylla cheopis; conditions: 24 h exposure
Experimental: Med. […] A control treated with acetone only was run with each series. Tick and flea susceptibility was evaluated using a modification of the disposable pipette method of Barnard et al. (J. Econ. Entomol., 74:466-69, 1981) and Maupin and […]. Med. […] The inner surface of 2-dram friction cap vials were treated with the compound/acetone solution, or acetone only as a control, and left to air-dry overnight (see also, […] et al., J. Med. […] Three to 4 holes were made in the plastic cap to allow for air exchange. Nymphal ticks and adult fleas were then placed directly into the vials using forceps. […] For each time point, if ticks and fleas were incapable of movement, maintaining normal posture, leg coordination, ability to right themselves, or any signs of life, they were considered moribund or dead.

[3] = NE = not effective at concentrations tested

C=C(C)[C@@H]1CCC2=C[C@@H](O)C[C@@H](C)[C@]2(C)C1 [Compound 12, Nootkatol]
LC50 (I. scapularis nymphs; [3]): 0.023 percent concentration, wt:vol | LC90 (I. scapularis nymphs; [3]): 0.059 percent concentration, wt:vol | Slope (I. scapularis nymphs; probit): 3.069 | biocidal activity compared with nootkatene [1]: essentially equivalent to the activity of nootkatene | RD50 ([2]; 1 hr): 0.047 % (w/v) | RD50 ([2]; 4 hr): 0.320 % (w/v) | LC50 (Ae. aegypti adults; [3]): 0.004 percent concentration, wt:vol | LC90 (Ae. aegypti adults; [3]): 0.01 percent concentration, wt:vol | Slope (Ae. aegypti adults; probit): 3.201 | LC50 (X. cheopis adults; [3]): 0.024 percent concentration, wt:vol | Slope (X. cheopis adults; probit): 2.101

— patent US7230033B2, “Pest control compositions and methods for their use” (United States of America as represented by the Secretary of …, priority 2000, dated 2007)
